The values that follow come from patent US8354539B2, “Indole derivatives as IKK2 inhibitors” (Glaxo Group Limited, priority 2009, dated 2013).

A value given as a limit tells only on which side of the number the result lay.

In the assay the test system is human peripheral blood mononuclear cells (PBMC). The experiment in a line: Human peripheral blood mononuclear cell assay (LPS stimulated TNFa production). Type of assay: cell-based. As to conditions: read-out: pIC50 potency, inhibition of TNF production (converted). On the procedure: The cellular potency of compounds was assessed in human peripheral blood mononuclear cells (PBMC) by measuring their impact on lipopolysaccharide (LPS) stimulated TNFa production. PBMCs were prepared from heparinised human blood from normal volunteers by centrifugation on hystopaque in Accuspin tubes at 800 g for 20 minutes. The cells were collected from the interface, washed by centrifugation (1300 g, 10 minutes) and resuspended in assay buffer (RPMI1640 containing 10% foetal calf serum, 1% L-glutamine and 1% penicillin/streptomycin) at 1×10^6 cells/ml. […] The supernatant was removed and the concentrations of TNF determined by electrochemiluminescence assay using the MSD technology.
20 μl supernatant from PBMC plates or 40 μl from whole blood plates was transferred using the Biomek FX to a 96 well High-Bind MSD assay plate precoated with anti-hTNF alpha capture antibody and containing 25 μl of MSD human serum cytokine assay diluent. […] The plates were shaken at room temperature for a further 1 hour before washing again and adding 150 μl of MSD Read Buffer T (2×). Plates were then read on the MSD Sector 6000 plate reader. For the PBMC assay, supernatant addition to the MSD plates was followed immediately by 20 μl of MSD detection antibody, the plates were then sealed and shaken for 2 hours before addition of 90 μl of MSD Read Buffer P (2.5×). Plates were read on the MSD Sector 6000. […]

In the case of `COCCS(=O)(=O)N1CCC(c2c[nH]c3c(C(N)=O)cc(-c4ccc5c(c4)CN(C(C)C)C5)cc23)CC1` [Compound of formula (I), 5-[2-(1-methylethyl)-2,3-dihydro-1H-isoindol-5-yl]-3-(1-{[2-(methyloxy)ethyl]sulfonyl}-4-piperidinyl)-1H-indole-7-carboxamide], the IC50 was less than 31.6 nM.
